Laboratory results published in patent US8841456B2, “1,5-naphthyridine derivative or salt thereof” (FUJIFILM Corporation, priority 2011, dated 2014).
Read-outs that look alike come from different tables or passages of the source.

Key:
[1] = target: T1, glutathione S-transferase (GST)-fusion human ERK2 protein (Homo sapiens, UniProt P28482); test: ERK2 enzyme assay (LabChip mobility shift); assay type: biochemical; details: 2 nM ERK2, 4.25 μM FL-Peptide 8, 43 μM ATP
T1 construct: purchased Carna Biosciences, Inc; host or cells: E. coli expression system
T1 sequence (P28482 whole entry, the tested form may be a part): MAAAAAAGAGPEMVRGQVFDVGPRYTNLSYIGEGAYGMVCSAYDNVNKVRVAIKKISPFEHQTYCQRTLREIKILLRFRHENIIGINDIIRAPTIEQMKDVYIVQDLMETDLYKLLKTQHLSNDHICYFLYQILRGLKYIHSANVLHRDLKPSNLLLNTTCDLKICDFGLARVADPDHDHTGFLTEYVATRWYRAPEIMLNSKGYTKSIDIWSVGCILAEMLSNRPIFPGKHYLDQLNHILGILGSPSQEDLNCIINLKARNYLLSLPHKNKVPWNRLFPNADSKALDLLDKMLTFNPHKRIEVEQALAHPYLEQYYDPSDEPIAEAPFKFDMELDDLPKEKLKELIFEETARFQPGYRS
Description: Evaluation of the ERK2 inhibitory activity of the compound of the present invention was carried out according to the method as described below.
For the ERK2 enzyme assay, a glutathione S-transferase (GST)-fusion human ERK2 protein (Carna Biosciences, Inc.) produced using an E. coli expression system was used.
12 μL of the reaction solution (2 nM ERK2, 100 mM Hepes, 10 mM MgCl2, 1.5 mM DTT, 0.003% Brij35, pH 7.5) including the ERK2 protein and a test compound at a predetermined concentration was incubatedat room temperature for 15 minutes. Thereafter, 3 μL of a mixed solution of FL-Peptide 8 (5-FAM-IPTSPITTTYFFFKKK-COOH) (Caliper Lifescience) which was a substrate and ATP(SIGMA-ALDLICH) were added thereto to a final concentration of 4.25 μM and 43 μM, respectively. The reaction solution was further incubated at 25° C. for 120 minutes to carry out an enzyme reaction.
The enzyme reaction was stopped by adding 27 μL of a reaction-stopping solution (100 mM HEPES, 11.2 mM EDTA, 5.6% Brij35, pH 7.5) including a 0.5% Coating reagent 8 (PerkinElmer, Inc.) after the reaction. Thereafter, non-phosphorylated peptides and phosphorylated peptides were separated using LabChip Ez Reader (Caliper LifeScience, Inc.) to quantify the proportion of phosphorylated peptides.
(§1) The inhibitory activity of the compounds was evaluated using an IC50 (50% inhibitory concentration). The IC50 was calculated using XLfit (IDBS).

[2] = target: T2, human PI3Kα protein (Homo sapiens, UniProt P42336); test: PI3Kα enzyme assay (ADP-Glo kinase assay); assay type: biochemical; details: 3 nM PI3Kα, 50 μM PIP2, 100 μM ATP
T2 construct: purchased Carna Biosciences, Inc; host or cells: Baculovirus expression system
T2 sequence (P42336 whole entry): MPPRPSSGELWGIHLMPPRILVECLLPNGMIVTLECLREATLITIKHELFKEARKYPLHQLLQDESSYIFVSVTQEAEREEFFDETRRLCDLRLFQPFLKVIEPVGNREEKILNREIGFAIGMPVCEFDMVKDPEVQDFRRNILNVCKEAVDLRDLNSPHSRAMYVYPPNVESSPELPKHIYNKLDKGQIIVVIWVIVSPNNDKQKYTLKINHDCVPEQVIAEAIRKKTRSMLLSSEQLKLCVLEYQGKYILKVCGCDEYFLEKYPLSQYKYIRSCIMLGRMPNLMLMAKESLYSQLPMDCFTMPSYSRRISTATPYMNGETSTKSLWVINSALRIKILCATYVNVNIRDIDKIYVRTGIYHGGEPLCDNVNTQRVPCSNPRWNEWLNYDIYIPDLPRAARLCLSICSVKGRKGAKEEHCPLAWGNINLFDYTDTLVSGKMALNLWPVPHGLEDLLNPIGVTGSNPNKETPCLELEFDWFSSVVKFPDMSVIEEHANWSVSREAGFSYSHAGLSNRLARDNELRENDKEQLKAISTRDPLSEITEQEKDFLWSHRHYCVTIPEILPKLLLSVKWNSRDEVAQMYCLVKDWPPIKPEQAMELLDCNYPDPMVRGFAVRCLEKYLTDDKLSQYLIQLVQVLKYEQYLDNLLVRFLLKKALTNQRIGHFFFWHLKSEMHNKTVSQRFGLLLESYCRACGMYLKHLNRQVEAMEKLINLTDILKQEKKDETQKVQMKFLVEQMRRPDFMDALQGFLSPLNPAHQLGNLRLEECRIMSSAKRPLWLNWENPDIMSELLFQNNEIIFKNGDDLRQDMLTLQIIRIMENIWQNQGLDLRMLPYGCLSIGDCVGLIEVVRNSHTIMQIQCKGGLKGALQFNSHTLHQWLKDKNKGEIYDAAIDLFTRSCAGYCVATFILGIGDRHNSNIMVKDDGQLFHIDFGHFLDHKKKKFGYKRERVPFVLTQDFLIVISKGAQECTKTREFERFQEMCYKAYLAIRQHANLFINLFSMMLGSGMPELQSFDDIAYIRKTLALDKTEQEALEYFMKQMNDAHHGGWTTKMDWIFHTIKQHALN
T2 sequence (P27986 whole entry partner): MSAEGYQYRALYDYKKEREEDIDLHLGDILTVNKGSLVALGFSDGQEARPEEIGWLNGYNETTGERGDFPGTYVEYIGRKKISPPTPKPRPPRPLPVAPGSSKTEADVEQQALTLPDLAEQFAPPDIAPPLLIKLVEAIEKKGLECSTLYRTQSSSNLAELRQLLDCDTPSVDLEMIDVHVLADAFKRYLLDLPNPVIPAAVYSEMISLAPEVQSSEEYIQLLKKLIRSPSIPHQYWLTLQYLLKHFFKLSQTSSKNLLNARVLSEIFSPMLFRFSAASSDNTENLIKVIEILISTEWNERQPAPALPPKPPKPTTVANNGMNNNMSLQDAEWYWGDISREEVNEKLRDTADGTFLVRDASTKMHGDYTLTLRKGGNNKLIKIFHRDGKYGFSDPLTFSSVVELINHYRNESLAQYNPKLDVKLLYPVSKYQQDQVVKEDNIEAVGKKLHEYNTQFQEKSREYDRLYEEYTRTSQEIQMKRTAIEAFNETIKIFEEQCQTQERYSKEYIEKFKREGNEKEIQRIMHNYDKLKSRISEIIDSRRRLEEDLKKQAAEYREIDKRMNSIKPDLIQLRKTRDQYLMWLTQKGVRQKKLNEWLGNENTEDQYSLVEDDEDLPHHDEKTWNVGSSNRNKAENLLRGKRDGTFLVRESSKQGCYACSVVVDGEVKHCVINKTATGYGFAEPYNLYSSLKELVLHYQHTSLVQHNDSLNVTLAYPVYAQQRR
Description: Evaluation of the PI3Kα inhibitory activity of the compound of the present invention was carried out according to the method as described below.
For the PI3Kα enzyme assay, biotinylated product of a human PI3Kα protein produced using a Baculovirus expression system (Carna Biosciences, Inc.) was used. Further, for the detection of the enzyme activity, an ADP-Glo kinase assay (PROMEGA Corporation) was used.
10 μL of a reaction solution (3 nM PI3Kα, 40 mM Tris-HCl, 20 mM MgCl2, 0.1% BSA, pH 7.5) including the human PI3Kα protein and a test compound at a predetermined concentration was incubated at room temperature for 15 minutes. Thereafter, 5 μL of a mixed solution of L-α-Phosphatidylinositol 4,5-diphosphate (PIP2) (SIGMA-ALDLICH) which was a substrate and ATP(SIGMA-ALDLICH) was added thereto to a final concentration of 50 μM and 100 μM, respectively, and the reaction solution was further incubated at 25° C. for 60 minutes to carry out an enzyme reaction.
After the reaction, 15 μL of an ADP-Glo reagent (PROMEGA Corporation) was added and the resulting liquid was incubated at room temperature for 60 minutes, whereby the enzyme reaction was stopped. Thereafter, after further adding 30 μL of a Kinase Detection Reagent (PROMEGA Corporation) and standing the resulting solution at room temperature for 40 minutes, ADP produced by the enzyme reaction was quantified by luminescence intensity.
For the measurement of luminescence intensity, EnVision (PerkinElmer, Inc.) was used.
as §1

[3] = IC50 class, read-out: ERK2 Inhibitory Activity
[4] = IC50 class, read-out: PI3Kα Inhibitory Activity

Structure (SMILES) | IC50 [1, 3] [µM] | IC50 [2, 4] [µM] | IC50 ([1]; read-out: ERK2, IC50) [µM] | IC50 ([2]; read-out: PI3Kα, IC50) [µM]
COc1ccccc1CCCCNC(=O)Nc1ccc2ncc(-c3cn[nH]c3)cc2n1 [Compound 0168] | < 0.1 | < 0.1 | – | –
CN(C)Cc1nn(C)cc1-c1cnc2ccc(NC(=O)NC3CCCC3)nc2c1 [Compound 0217] | 0.1 to 1 | < 0.1 | – | –
O=C(Nc1ccc2ncc(-c3ccnc(O)c3)cc2n1)NC1CCCC1 [Compound 0023] | 0.1 to 1 | < 0.1 | – | –
O=C(NCCCCC1CCCCC1)Nc1ccc2ncc(-c3cnn(CCCN4CCOCC4)c3)cc2n1 [Compound 0178] | 0.1 to 1 | 0.1 to 1 | – | –
O=C(Nc1ccc2ncc(-c3cnn(C4CCNC4)c3)cc2n1)NC1CCCC1 (stereo not shown) [Compound 0144] | 0.1 to 1 | < 0.1 | – | –
O=C(Nc1ccc2ncc(-c3cn[nH]c3)cc2n1)NC1C[C@H]2CC[C@@H]1C2 (stereo partly shown) [Compound 0068] | < 0.1 | < 0.1 | 0.004 | 0.03
CCN(CC)CCNC(=O)Nc1ccc2ncc(-c3cn[nH]c3)cc2n1 [Compound 0109] | 1 to 10 | > 10 | – | –
O=C(Nc1ccc2ncc(-c3cn[nH]c3)cc2n1)NN1CCCC1 [Compound 0204] | 0.1 to 1 | 0.1 to 1 | – | –
COc1cc(Nc2cnc3ccc(NC(=O)NC4CCCC4)nc3c2)cc(OC)c1OC [Compound 0009] | – | < 0.1 | 1.22 | < 0.003
CS(=O)(=O)C1CCN(CCn2cc(-c3cnc4ccc(NC(=O)NC5CCCC5)nc4c3)cn2)CC1 [Compound 0218] | < 0.1 | < 0.1 | – | –
COc1cccc(CCCCNC(=O)Nc2ccc3ncc(-c4cn[nH]c4)cc3n2)c1 [Compound 0169] | < 0.1 | 0.1 to 1 | – | –
O=C(Nc1ccc2ncc(Nc3cnccn3)cc2n1)NC1CCCC1 [Compound 0140] | 0.1 to 1 | < 0.1 | – | –
CC(CCc1ccccc1)NC(=O)Nc1ccc2ncc(-c3cn[nH]c3)cc2n1 (stereo not shown) [Compound 0088] | < 0.1 | < 0.1 | – | –
O=C(Nc1ccc2ncc(-c3cnn(CCN4CCOCC4)c3)cc2n1)NC1C[C@H]2CC[C@@H]1C2 (stereo partly shown) [Compound 0114] | < 0.1 | < 0.1 | – | –
CCOC(=O)CNC(=O)Nc1ccc2ncc(-c3cn[nH]c3)cc2n1 [Compound 0062] | 0.1 to 1 | 1 to 10 | – | –
O=C(NCC1CCCOC1)Nc1ccc2ncc(-c3cn[nH]c3)cc2n1 (stereo not shown) [Compound 0190] | < 0.1 | 0.1 to 1 | – | –
CN(C)CCn1cc(-c2cnc3ccc(NC(=S)NC4CCCC4)nc3c2)cn1 [Compound 0209] | < 0.1 | < 0.1 | – | –
CC(C)(C)OC(=O)N1CCN(CCCn2cc(-c3cnc4ccc(NC(=O)NC5CCCC5)nc4c3)cn2)CC1 [Compound 0211] | < 0.1 | < 0.1 | – | –
O=C(Nc1ccc2ncc(-c3ccsc3)cc2n1)NC1CCCC1 [Compound 0118] | < 0.1 | 0.1 to 1 | – | –
CN(CCO)CCn1cc(-c2cnc3ccc(NC(=O)NC4CCCC4)nc3c2)cn1 [Compound 0045] | < 0.1 | < 0.1 | – | –
O=C(NCCCN1CCOCC1)Nc1ccc2ncc(-c3cn[nH]c3)cc2n1 [Compound 0201] | 0.1 to 1 | 1 to 10 | – | –
O=C(NCC1CCCCC1)Nc1ccc2ncc(-c3cn[nH]c3)cc2n1 [Compound 0063] | < 0.1 | 0.1 to 1 | – | –

Structure (SMILES) | IC50 [1, 3] [µM] | IC50 [2, 4] [µM] | IC50 ([1]; read-out: ERK2, IC50) [µM] | IC50 ([2]; read-out: PI3Kα, IC50) [µM]
O=C(NCCCCc1ccc(Cl)cc1)Nc1ccc2ncc(-c3cn[nH]c3)cc2n1 [Compound 0167] | < 0.1 | 0.1 to 1 | – | –
COCCOc1cc(-c2cnc3ccc(NC(=O)NC4CCCC4)nc3c2)ccc1O [Compound 0021] | < 0.1 | 0.1 to 1 | – | –
CN(CCCNC(=O)Nc1ccc2ncc(-c3cn[nH]c3)cc2n1)c1ccccc1 [Compound 0105] | < 0.1 | 0.1 to 1 | – | –
S=C(Nc1ccc2ncc(-c3cnn(CCCN4CCNCC4)c3)cc2n1)NC1CCCC1 [Compound 0220] | < 0.1 | < 0.1 | – | –
COCCNC(=O)Nc1ccc2ncc(-c3cn[nH]c3)cc2n1 [Compound 0098] | < 0.1 | 0.1 to 1 | – | –
CC(CCc1ccccc1)NC(=O)Nc1ccc2ncc(-c3cnn(CCCN4CCOCC4)c3)cc2n1 (stereo not shown) [Compound 0179] | < 0.1 | < 0.1 | – | –
COc1ccc(CCCCNC(=O)Nc2ccc3ncc(-c4cn[nH]c4)cc3n2)cc1 [Compound 0173] | < 0.1 | 0.1 to 1 | – | –
CN(C)CCCn1cc(-c2cnc3ccc(NC(=O)NC4(C)CCCC4)nc3c2)cn1 [Compound 0258] | 0.1 to 1 | < 0.1 | – | –
CN1CC(n2cc(-c3cnc4ccc(NC(=O)NC5CCCC5)nc4c3)cn2)C1 [Compound 0145] | 0.1 to 1 | < 0.1 | – | –
O=C(NCC1CCC(F)(F)CC1)Nc1ccc2ncc(-c3cnn(CCCN4CCOCC4)c3)cc2n1 [Compound 0180] | < 0.1 | < 0.1 | – | –
Cn1cc(-c2cc3nc(NC(=O)NC4CCCC4)ccc3nc2Cl)cn1 [Compound 0225] | > 10 | > 10 | – | –
S=C(Nc1ccc2ncc(-c3cnn(CCN4CCNCC4)c3)cc2n1)NC1CCCC1 [Compound 0222] | < 0.1 | < 0.1 | – | –
O=C(NCCOCc1ccccc1)Nc1ccc2ncc(-c3cn[nH]c3)cc2n1 [Compound 0107] | < 0.1 | 0.1 to 1 | – | –
CN(C)CCNc1cnc2ccc(NC(=O)NC3CCCC3)nc2c1 [Compound 0011] | 1 to 10 | 0.1 to 1 | – | –
O=C(Nc1ccc2ncc(-c3cnn(CCN4CCOCC4)c3)cc2n1)NC1CCCC1 [Compound 0004] | < 0.1 | < 0.1 | – | –
O=C(Nc1ccc2ncc(-c3cnn(CCCN4CCOCC4)c3)cc2n1)NC1CCCC1 [Compound 0044] | < 0.1 | < 0.1 | 0.049 | 0.004
CC(C)CC(C)NC(=O)Nc1ccc2ncc(-c3cn[nH]c3)cc2n1 (stereo not shown) [Compound 0087] | < 0.1 | < 0.1 | – | –
O=C(Nc1ccc2ncc(-c3cnn(C4CNC4)c3)cc2n1)NC1CCCC1 [Compound 0143] | 0.1 to 1 | < 0.1 | – | –
O=C(Nc1ccc2ncc(N3CCOCC3)cc2n1)NC1CCCC1 [Compound 0008] | < 0.1 | < 0.1 | – | –
CC(=O)OCCCCn1cc(-c2cnc3ccc(NC(=O)NC4CCCC4)nc3c2)cn1 [Compound 0249] | < 0.1 | < 0.1 | – | –
O=C(Nc1ccc2ncc(N3CC(OCCCN4CCOCC4)C3)cc2n1)NC1CCCC1 [Compound 0240] | 0.1 to 1 | < 0.1 | – | –
